Results taken from patent publication US6761896B1, “Skin cosmetic care system and method” (Unilever Home & Personal Care USA, division of Conopco, Inc., priority 1998, dated 2004).

System: pig skin dermis
Assay: DNA synthesis (3H-thymidine) of pig skin organ cultures, dermis
Type: cell-based
Description: Freshly excised 2-3 week old piglet skins were obtained from Buckshire Farms, Pa. The pig skins were washed exhaustively first with soap and then with 10× antibiotic containing medium (penicillin, streptomycin). The pig skins were then dermatomed at 200 microns thickness. Seven (7) mm punch biopsies were made from these washed pig skins. The biopsies are then washed again with the 10× antibiotic medium and finally with normal DMEM (2 washes). Three (3) biopsies were incubated in each transwell plates, epidermal side up, with 1 ml of serum free DMEM fed from the bottom of the plates. Experiments were started 3 days after the biopsies were equilibrated under these conditions. Three (3) days after equilibrating the pig skin organ cultures prepared as described above, the medium was removed, 1 ml of fresh medium was added, and the wells were treated with different concentrations of lactic acid by adding from a 100 fold concentrated stock in water, directly into the medium. Simultaneous with the addition of lactic acid, selected cultures were also exposed to the South or North pole of a bar magnet or to the Bioflex magnet. The magnets were placed on top of the culture dish to expose the epidermis directly (the organ culture is carried out with the epidermis side on top). Three (3) days later, medium was changed, lactic acid was re-added, and 10 uCi ^3H-thymidine was added to each well. Plates were incubated for a further 24 hrs. At the end of the incubation period, biopsies were removed, washed in PBS for 1 hr with shaking, and incubated overnight in 10 ml of 2M sodium bromide with shaking to split the epidermis from the dermis. The biopsies were washed with PBS, and the epidermis was peeled off from dermis carefully using a scalpel. The epidermis and dermis were digested with 1 ml of 0.5N NaOH overnight at 50 C, 200 ul was used for counting the radioactivity. The DNA synthesis rate was calculated as cpm/7 mm punch biopsy for dermis or epidermis and in some experiments expressed also as % of controls. All organ culture experiments were conducted with at least 6 replicates, and the mean+/−standard deviation was calculated for statistical analysis using Students t-test. In example 7, dermal proliferation was measured as a function of lactic acid and magnetic pole treatment.

[1] = Example 7, dermis, LA + North pole
[2] = Example 7, dermis, LA + South pole

CC(O)C(=O)O (centres unmarked) [LA, lactic acid]
DNA SYNTHESIS (CPM/BIOPSY) MEAN +/- STD (Example 7, dermis, 0.2 mM LA, no magnet): 15306 +/− 4656 CPM/BIOPSY
DNA SYNTHESIS (CPM/BIOPSY) MEAN +/- STD [1]: 16886 +/− 2227 CPM/BIOPSY
DNA synthesis AS % OF CONTROL [1]: 178%
DNA SYNTHESIS (CPM/BIOPSY) MEAN +/- STD [2]: 17244 +/− 4259 CPM/BIOPSY
DNA synthesis AS % OF CONTROL [2]: 182%
synergy of magnet with lactic acid in the dermis (Example 7, combinations of magnet with lactic acid): no synergy
effect on dermal proliferation (Example 7, lactic acid alone): significant stimulation
activity at 200 µM (Sus scrofa, Example 7, dermis, 0.2 mM LA, no magnet, read-out: DNA synthesis AS % OF CONTROL): 162%
